Measurements as given in US10533010B2, “Substituted indole Mcl-1 inhibitors” (Vanderbilt University, priority 2014, dated 2020).
pEC50, pIC50, pKi: −log10 of the molar value. Where two headings read alike, the source gives them in different places.

Key:
[1] = target: recombinant Mcl-1 (residues 172-327) (Homo sapiens (Human), UniProt Q07820); assay: Fluorescence polarization anisotropy competition assay (FITC-Bak or FITC-Bim BH3 peptide) with Mcl-1; format: binding; conditions: for Ki: Table 2, Ki bins given in nM, FITC-Bak or FITC-Bim peptide competition, Ki converted from IC50, read-out: Ki for Inhibition of Mcl-1
Chain of recombinant Mcl-1 (residues 172-327) (Q07820 172-327): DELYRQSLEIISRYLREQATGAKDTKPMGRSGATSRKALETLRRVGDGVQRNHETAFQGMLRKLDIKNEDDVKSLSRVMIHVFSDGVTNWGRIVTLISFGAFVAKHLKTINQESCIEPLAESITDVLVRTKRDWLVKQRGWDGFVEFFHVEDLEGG

K562 = assay: Cellular viability (Cell TiterGlo) K562; format: cell-based; conditions: Homo sapiens; K562 cells, 72 hours, 10% FBS; read-out: IC50 on cellular proliferation, K562
Procedure: (§1) Human cancer cell lines ALMC-1, ALMC-2, K562, H929, and OPM-2 were cultured in media supplemented with 10% fetal bovine serum (FBS). To evaluate compound effect on cellular proliferation, cells were plated at 1,000 cells/well in 96-well tissue culture plates in a total volume of 90 μL medium supplemented with 10% FBS (Sigma, Saint Louis, Mo.). 24 hours later, 10 μL of compound (in a 2-fold serial dilution) is added to the cells for a top concentration of 50 μM and a final DMSO concentration <1%. After 72 hours, 50 μL of Cell TiterGlo (Promega, Madison, Wis., USA) reagent is added to each well and plates are incubated at room temperature, in the dark, for 30 minutes. Luminescence is measured on a BioTek Cytation 3. Luminescence values are imported into a template in XLFit (Guildford, Surrey, UK) that uses a four-parameter fit to generate an IC50 value for each compound dilution series on the plate.

ALMC-1 = assay: Cellular viability (Cell TiterGlo) ALMC-1; format: cell-based; conditions: Homo sapiens, ALMC1; ALMC-1 cells, 72 hours, 10% FBS; read-out: IC50 on cellular proliferation, ALMC-1
Procedure: as §1

[2] = target: Bcl-2 (residues 1-207 A96T,G110R, Δ35-91, replaced with Bcl-xL35-50) (Homo sapiens, UniProt P10415, A37E/DEL42-87/G36T/INS34DVEEN/P40E/P88T/P90S/P91E/V35R/V89E); assay: Fluorescence polarization anisotropy competition selectivity assay (FITC-Bak peptide) with Bcl-2; format: binding; conditions: Table 3; 40 nM Bcl-2, 10 nM FITC-Bak
Procedure: (§2) Compound affinity was measured using a fluorescence polarization anisotropy competition assay. Anisotropy measurements were carried out in 384-well, black, flat-bottom plates (Greiner Bio-one, Monroe, N.C., USA). The assay was run using either a fluorescein isothiocyanate-labeled BH3 peptide derived from Bak (FITC-AHx-[…]-NH2) or a fluorescein isothiocyanate-labeled BH3 peptide derived from Bim (FITC-AHx-[…]-NH2) that were purchased from GenScript (Piscataway, N.J.) at >95% purity and used without further purification. 10 nM FITC-Bak peptide and 15 nM recombinant Mcl-1 (residues 172-327) were added to assay buffer (3 mM dithiothreitol, 50 mM NaCl, 20 mM Tris, pH 7.5). The Bim based assay was run with 1 nM FITC-Bim peptide and 1.5 nM recombinant Mcl-1 (residues 172-327) added to assay buffer (20 mM TRIS pH 7.5, 50 mM NaCl, 3 mM DTT, 0.01% CHAPS). For selectivity assays, 40 nM Bcl-2 (residues 1-207^A96T,G110R, Δ35-91, replaced with Bcl-xL35-50) or 4 nM Bcl-xL (residues 1-209, loop 45-86 deleted) were incubated with 10 nM FITC-Bak in assay buffer.
(§3) Compounds are diluted in DMSO in a 10-point, 3-fold serial dilution scheme. For the FITC-BAK assay 2.5 uL compound is added to 47.5 μL of assay buffer containing FITC-Bak and protein, for a final DMSO concentration of 5% and a top concentration of 20 μM. […] […]. The plate was mixed and incubated for 90 minutes at room temperature. Anisotropy is measured at excitation wavelength 480 nm and emission wavelength 535 nm using an EnVision Multi-label plate reader (PerkinElmer, Wellesley, Mass., USA) or a BioTek Cytation 3 (BioTek, Winooski, Vt., USA). […] IC50 is converted to a binding dissociation constant (Ki value) according to the formula of Wang Z. FEBS Lett (1996) 3, 245.

OPM-2 = assay: Cellular viability (Cell TiterGlo) OPM-2; format: cell-based; conditions: Homo sapiens; OPM-2 cells, 72 hours, 10% FBS; read-out: IC50 on cellular proliferation, OPM-2
Procedure: as §1

H929 [3] = assay: Cellular viability (Cell TiterGlo) H929; format: cell-based; conditions: Homo sapiens, NCI-H929; H929 cells, 72 hours, 10% FBS; read-out: IC50 on cellular proliferation, H929
Procedure: as §1

[4] = target: Bcl-xL (residues 1-209, loop 45-86 deleted) (Homo sapiens (Human), UniProt Q07817, DEL45-86); assay: Fluorescence polarization anisotropy competition selectivity assay (FITC-Bak peptide) with Bcl-xL; format: binding; conditions: Table 3; 4 nM Bcl-xL, 10 nM FITC-Bak
Chain of Bcl-xL (residues 1-209, loop 45-86 deleted) (Q07817 other isoform, or with tags, fused parts or gaps del 45-86): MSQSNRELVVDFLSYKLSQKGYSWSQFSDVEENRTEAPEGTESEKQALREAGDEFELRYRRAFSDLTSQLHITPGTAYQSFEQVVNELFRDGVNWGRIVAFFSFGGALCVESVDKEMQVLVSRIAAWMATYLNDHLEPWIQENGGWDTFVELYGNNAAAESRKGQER
Procedure: as §2, §3

ALMC-2 = assay: Cellular viability (Cell TiterGlo) ALMC-2; format: cell-based; conditions: Homo sapiens, ALMC2; ALMC-2 cells, 72 hours, 10% FBS; read-out: IC50 on cellular proliferation, ALMC-2
Procedure: as §1

H929 [5] = assay: Apoptosis assay (Caspase 3/7 Glo) H929; format: cell-based; conditions: Homo sapiens, NCI-H929; H929 cells, 3 hours, 5% FBS; read-out: EC50 on cellular caspase 3/7 activation, H929
Procedure: Induction of apoptosis was measured by quantifying caspase 3/7 activity using the commercially available Caspase-Glo reagent (Promega, Madison, Wis., USA). This assay relies on the cleavage of a proluminescent substrate by activated caspases, which is then detected on the BioTek Cytation 3. 5000 cells in 90 μL of media (+5% FBS) are plated in each well of a white 96-well plate and incubated overnight at 37° C. in a tissue culture incubator. The following day, compound is diluted in a 10-pt, 2-fold serial dilution scheme for a final top concentration of 50 μM. 10 μL of compound is added directly to the cell assay plate for a final volume of 100 μL. Columns 11 and 12 are reserved for treatment with DMSO to serve as control wells. Plates are incubated for 3 hours. 100 μL of Caspase-Glo reagent is added to each well and plates are incubated at room temperature, in the dark, for 30 minutes. Luminescence is measured on the Cytation 3. Luminescence values are imported into a template in XLFit (Guildford, Surrey, UK) that uses a four-parameter fit to generate an IC50 value for each compound dilution series on the plate.

SMILES	Ki [1]	pIC50 (K562)	pIC50 (H929 [3])	pEC50 (H929 [5])	pKi ([1]; Table 3, selectivity panel, read-out: Mcl-1 Ki)	pIC50 (ALMC-1)	pKi [2]	pIC50 (OPM-2)	pKi [4]	pIC50 (ALMC-2)
Cc1cc(OCCCc2c3n(c4c(-c5c(C)nn(C)c5C)cccc24)CCN(Cc2cccc(C(=O)O)c2)C3=O)cc(C)c1Cl [I-31, 3-((10-(3-(4-chloro-3,5-dimethylphenoxy)propyl)-1-oxo-6-(1,3,5-trimethyl-1H-pyrazol-4-yl)-3,4-dihydropyrazino[1,2-a]indol-2(1H)-yl)methyl)benzoic acid]	[…]	4.40	4.82	–	[…]	4.88	5.66	4.79	5.19	4.47
Cc1cc(OCCCc2c3n(c4c(-c5c(C)nn(C)c5C)c(Cl)ccc24)CCN(c2cccc(C(=O)O)c2)C3=O)cc(C)c1Cl [I-178, 3-(7-chloro-10-(3-(4-chloro-3,5-dimethylphenoxy)propyl)-1-oxo-6-(1,3,5-trimethyl-1H-pyrazol-4-yl)-3,4-dihydropyrazino[1,2-a]indol-2(1H)-yl)benzoic acid]	< 50 nM	4.93	5.06	5.51	–	5.21	–	4.93	–	5.06
Cc1cc(C(=O)O)cc(N2CCCn3c(c(CCCOc4cc(C)c(Cl)c(C)c4)c4ccc(Cl)c(-c5c(C)nn(C)c5C)c43)C2=O)c1 [I-220, 3-(8-chloro-11-(3-(4-chloro-3,5-dimethylphenoxy)propyl)-1-oxo-7-(1,3,5-trimethyl-1H-pyrazol-4-yl)-4,5-dihydro-1H-[1,4]diazepino[1,2-a]indol-2(3H)-yl)-5-methylbenzoic acid]	< 50 nM	4.83	5.31	–	–	–	–	–	–	–

More lines, main results first:

Ki [1]	pIC50 (K562)	pIC50 (H929 [3])	pEC50 (H929 [5])	SMILES	pKi ([1]; Table 3, selectivity panel, read-out: Mcl-1 Ki)	pIC50 (ALMC-1)	pKi [2]	pIC50 (OPM-2)	pKi [4]	pIC50 (ALMC-2)
< 50 nM	4.60	5.14	–	Cc1cc(OCCCc2c3n(c4c(-c5c(C)nn(C)c5C)c(Cl)ccc24)CCCN(c2cccc(CC(=O)O)c2)C3=O)cc(C)c1Cl [I-236, 2-(3-(8-chloro-11-(3-(4-chloro-3,5-dimethylphenoxy)propyl)-1-oxo-7-(1,3,5-trimethyl-1H-pyrazol-4-yl)-4,5-dihydro-H-[1,4]diazepino[1,2-a]indol-2(3H)-yl)phenyl)acetic acid]	–	5.16	–	5.14	–	4.91
< 50 nM	–	–	5.64	Cc1cc(OCCCc2c(C(=O)NC[C@H]3CC[C@H](C(=O)O)CC3)[nH]c3c(-c4c(C)nn(C)c4C)cccc23)cc(C)c1Cl [I-320, (1R,4R)-4-((3-(3-(4-chloro-3,5-dimethylphenoxy)propyl)-7-(1,3,5-trimethyl-1H-pyrazol-4-yl)-1H-indole-2-carboxamido)methyl)cyclohexane-1-carboxylic acid]	–	–	–	–	–	–
